Experimental data taken from US20080261898A1, “COMPOSITION AND METHOD FOR CANCER TREATMENT AND PREVENTION” (priority 2007, published 2008).

What was measured:
[1] = system: primary human prostate endothelial cells; assay: Viable cells, Annexin-V staining and flow cytometry, primary human prostate endothelial cells; assay type: cell-based; settings: up to the highest concentration, 1000 μM, 72 hr
Protocol: AC620 was incubated with DU-145 cells, LNCaP cells and primary human prostate endothelial cells at high concentrations (0, 5, 100, 500, 1000 μM) for 72 hr. The number of viable cells was measured by Annexin-V staining followed by flow cytometry analysis.

[2] = system: VEGF Receptor I (VEGF R1); assay: VEGF R1 expression in DU-145 cells, immunoblotting; assay type: cell-based, human; settings: 0.1, 0.5, 1 μM, 72 hr
Protocol: DU-145 cells were treated with AC620 at various concentrations (0, 0.1, 0.5, 1 μM) for 72 hr. After 72 hr treatment, cell lysates were collected and immunoblotting was performed. The membranes were probed with primary antibodies against VEGF Receptor I (VEGF R1) and VEGF Receptor II (VEGF R2) and actin (Santa Cruz Biotechnology, Santa Cruz, Calif.) followed by horseradish peroxidase (HRP)-conjugated secondary antibodies and visualized using the Enhanced Chemi-Luminescence detection system (ECL) and ECL films.

DU-145 cells [3] = assay: BrdU based cell proliferation assay, DU-145 cells; design: species or system human
Protocol: AC620 was incubated with hormone-refractory prostate cancer cell line DU-145 cells and hormone-responsive prostate cancer cell line LNCaP cells at various concentrations (0, 0.1, 0.5, 1, 5 μM) for 72 hr. LNCaP cells were maintained in RPMI 1640 medium (PAA Laboratories, Pashing, Austria) supplemented with 10% fetal calf serum (FCS) (Sigma, St. Louis, Mo.). The effect of AC620 on proliferation of DU-145 cells and LNCaP cells was determined by using a non-radioactive BrdU based cell proliferation assay kit (Roche, Switzerland) according to manufacturer's protocol. BrdU incorporation into the cellular DNA was determined by measuring the absorbance at 450 nm and 690 nm on an ELISA plate reader.
AC620 was incubated with hormone-refractory prostate cancer cell line DU-145 cells and hormone-responsive prostate cancer cell line LNCaP cells at 0 (Control) and 5 μM for 24, 48 and 72 hr. The effect of AC620 on proliferation of DU-145 cells and LNCaP cells was determined by using a non-radioactive BrdU based cell proliferation assay kit (Roche, Switzerland) according to manufacturer's protocol. BrdU incorporation into the cellular DNA was determined by measuring the absorbance at 450 nm and 690 nm on an ELISA plate reader.

CDK2 [4] = assay: CDK2 expression in xenograft tumor samples, immunoblotting; assay type: in vivo, mouse
Protocol: (§1) 8-12 week old athymic nude mice (Jackson Laboratories, Bar Harbor, Me., US) were randomly assigned to Control (n=10) and Treatment (n=10) groups. Tumor xenografts were generated by injecting DU-145 cells (4×10^6) subcutaneously into the mice (Day 1). 1 mg/kg body weight of AC620 or PBS (Control) was administrated to the mice by subcutaneous injection starting at the time of tumor implantation (Day 1) and the mice were treated twice a week. Tumors were measured periodically. At Day 30, the mice were sacrificed. Half of each tumor was processed for immunohistochemical analysis and the other half was frozen for subsequent protein and RNA analysis.
Xenograft mouse model was generated and AC620 or PBS (Control) was administrated to the transplanted mice for 30 days as described above. After the mice were sacrificed, immunoblotting analysis of the tumor samples was performed using CDK1 and CDK2 antibodies as described above.

VEGF = VEGF expression in xenograft tumor samples, immunohistochemistry; assay type: in vivo, mouse; settings: 1 mg/kg s.c. twice a week, 30 days
Protocol: as §1
Xenograft mouse model was generated and AC620 or PBS (Control) was administrated to the transplanted mice for 30 days as described above. After the mice were sacrificed, immunohistochemical analysis of the tumor samples was performed using VEGF and VEGF R2 antibodies with a semi-automatic system Ventana ES (Ventana Inc, Tucson, Ariz.). The specimens were viewed with an Olympus BX51 microscope. Expression of VEGF in tumor samples at RNA level was measured by RT-PCR.

Bcl-2 = Bcl-2 expression in xenograft tumor samples, immunoblotting; assay type: in vivo, mouse
Protocol: as §1
Xenograft mouse model was generated and AC620 or PBS (Control) was administrated to the transplanted mice for 30 days as described above. After the mice were sacrificed, immunoblotting analysis of the tumor samples was performed using Bcl-2 and p21 antibodies as described above.

LNCaP cells = assay: Apoptosis, Annexin V flow cytometry, LNCaP cells; assay type: cell-based, human; settings: 72 hr
Protocol: AC620 was incubated with DU-145 cells and LNCaP cells at various concentrations (0, 0.1, 0.5, 1, 5 μM) for 72 hr. The effect of AC620 on apoptosis of DU-145 cells and LNCaP cells was assessed. The cells were washed in 1×PBS and resuspended in binding buffer (0.01M Hepes pH 7.4, 0.14M NaCl, 2.5 mM CaCl2), stained with Annexin V conjugated with APC (Pharmingen) and then subjected to flow cytometry analysis using FACS Caliber (BD Biosciences, San Jose, Calif.).

DU-145 tumor xenografts = assay: Tumor growth in DU-145 xenograft mouse model; assay type: in vivo; settings: for decrease of tumor size: athymic nude mice, DU-145 xenograft
Protocol: as §1

DU-145 cells [5] = assay: Cell cycle profile by flow cytometry, DU-145 cells; assay type: cell-based, human; settings: 72 hr
Protocol: AC620 was incubated with DU-145 cells at various concentrations ([…]) for 72 hr. The cells were then collected and their cell cycle profiles were measured by flow cytometry analysis.

CDK2 [6] = assay: CDK2 expression in DU-145 cells, immunoblotting; assay type: cell-based, human; settings: 72 hr
Protocol: After 72 hr treatment, cell lysates were collected and immunoblotting was performed. The membranes were probed with primary antibodies against CDK2 (Transduction Laboratory, San Jose, Calif.) and actin (Santa Cruz Biotechnology, Santa Cruz, Calif.) followed by horseradish peroxidase (HRP)-conjugated secondary antibodies and visualized using the Enhanced Chemi-Luminescence detection system (ECL) and ECL films.

CC1OC(OCC2OC(Oc3c(-c4ccc(O)c(O)c4)oc4cc(O)c(O)cc4c3=O)C(O)C(O)C2O)C(O)C(O)C1O (stereo not shown) [AC620]
viability of primary human prostate endothelial cells [1]: remained viable
change in VEGF R1 expression [2]: no change
decrease in cell proliferation of DU-145 cells (DU-145 cells [3]; 5 μM, after 24 hr): 6%
decrease in cell proliferation of DU-145 cells (DU-145 cells [3]; 5 μM, after 48 hrs): 31%
decrease in cell proliferation of DU-145 cells (DU-145 cells [3]; 5 μM, after 72 hr (time study)): 86%
decrease in cell proliferation of DU-145 cells (DU-145 cells [3]; 0.1 μm, 72 hr): 37%
decrease in cell proliferation of DU-145 cells (DU-145 cells [3]; 0.5 μm, 72 hr): 58%
decrease in cell proliferation of DU-145 cells (DU-145 cells [3]; 1 μm, 72 hr): 72%
decrease in cell proliferation of DU-145 cells (DU-145 cells [3]; 5 μm, 72 hr (dose study)): 84%
reduction of CDK2 expression in tumor samples (CDK2 [4]; Treatment 1): approximately 80%
reduction of CDK2 expression in tumor samples (CDK2 [4]; Treatments 2, 3 and 4): > 95%
expression of VEGF in tumors (VEGF): completely abolished
estimated decrease of Bcl-2 expression in tumor samples (Bcl-2; Treatment 1): ~80%
estimated decrease of Bcl-2 expression in tumor samples (Bcl-2; Treatment 2): > 95%
estimated decrease of Bcl-2 expression in tumor samples (Bcl-2; Treatment 3): ~90%
estimated decrease of Bcl-2 expression in tumor samples (Bcl-2; Treatment 4): > 95%
apoptosis increased, LNCaP cells (LNCaP cells; 0.1 μm): 46%
apoptosis increased, LNCaP cells (LNCaP cells; 0.5 μm): 81%
apoptosis increased, LNCaP cells (LNCaP cells; 1 μm): 154%
apoptosis increased, LNCaP cells (LNCaP cells; 5 μm): 177%
tumor growth compared to Control (DU-145 tumor xenografts; 1 mg/kg subcutaneous twice a week, P<0.03): significantly reduced
decrease of tumor size (DU-145 tumor xenografts; Day 19, 1 mg/kg subcutaneous twice a week): 47%
decrease of tumor size (DU-145 tumor xenografts; Day 22, 1 mg/kg subcutaneous twice a week): 37%
decrease of tumor size (DU-145 tumor xenografts; Day 25, 1 mg/kg subcutaneous twice a week): 24%
decrease of tumor size (DU-145 tumor xenografts; Day 29, 1 mg/kg subcutaneous twice a week): 13%
morphology of tumor samples compared to Control group (DU-145 tumor xenografts; immunohistochemical specimens, 30 days treatment): more differentiated morphology
G1 phase cell cycle arrest (DU-145 cells [5]; 0.1 μm): 0%
G1 phase cell cycle arrest (DU-145 cells [5]; 0.5 μm): 4%
G1 phase cell cycle arrest (DU-145 cells [5]; 1 μm): 18%
G1 phase cell cycle arrest (DU-145 cells [5]; 5 μm): 32%
estimated decrease of CDK2 expression (CDK2 [6]; 0.1 μm): ~0%
estimated decrease of CDK2 expression (CDK2 [6]; 0.5 μm): ~10%
estimated decrease of CDK2 expression (CDK2 [6]; 1 μm): ~20%
estimated decrease of CDK2 expression (CDK2 [6]; 4 μm): ~60%
